According to paper PMC11887051, “Discovery of ONO-2920632 (VU6011887): A Highly Selective and CNS Penetrant TREK-2 (TWIK-Related K+ Channel 2) Preferring Activator In Vivo Tool Compound” (ACS Chemical Neuroscience, 2025):
“Also recorded” adds a separate entry of the source. Like-named read-outs stand apart in the source and are kept apart here.

Experiments:
[1] = mouse PO PK study (C57BL/6); format: in vivo; conditions: 3 mg/kg PO; for concentration at 2 h: C57BL/6, mouse, po
Protocol: Plasma and brain tissue samples originating from in vivo studies were analyzed by electrospray ionization using an AB Sciex Q-TRAP 5500 (Foster City, CA) that was coupled to a Shimadzu LC-20AD pump (Columbia, MD) and a Leap Technologies CTC PAL auto-sampler (Carrboro, NC). Analytes were separated by gradient elution using a C18 column (3 x 50 mm, 3 mm; Fortis Technologies Ltd, Cheshire, UK) that was thermostated at 40 °C. HPLC mobile phase A was 0.1% formic acid in water (pH unadjusted); mobile phase B was 0.1% formic acid in acetonitrile (pH […]
min, with an isocratic hold for 0.5 min, before transitioning to 10% B over 0.05 min. The column was re-equilibrated (1 min) before the next sample injection. The total run time was 2.55 min, and the HPLC flow rate was 0.5 ml/min. The source temperature was set at 500 °C, and mass spectral analyses were performed using a Turbo-Ion spray source in positive ionization mode (5.0-kV spray voltage) and using multiple-reaction monitoring of transitions specific for the analytes. All data were analyzed using AB Sciex Analyst 1.5.1 software.
Brain plasma concentration ratio (Kp) was calculated by dividing brain concentration by plasma concentration for each animal. Unbound brain to unbound plasma concentration ratio (Kp,uu) is calculated using the following formula: Kp,uu = (Brain ng/g x brain fu)/(plasma ng/ml x plasma fu).
For determination of the plasma concentration-time profile, compounds were formulated in methyl cellulose and administered as a 3 mg/kg PO dose to male C57BL/6 mouse or SD rat (n = 2). For the same determination, compounds were formulated in HP-β-CD and administered as a 0.1 mg/kg IV dose to male beagle dog (n = 2).
Plasma samples originating from in vivo studies were analyzed by electrospray ionization using a Q-TRAP 5500 (AB Sciex) that was coupled to a Prominence UFLC XR (Shimadzu Corporation).
Analytes were separated by gradient elution using a Shim-pack XR-ODS II (2 x 75 mm, 2.2μm, Shimadzu Corporation) that was thermostated at 40 °C. HPLC mobile phase A was 5 mM ammonium acetate containing 0.2% formic acid in water (pH unadjusted); mobile phase B was […]
hold for 1.5 min, before transitioning to 10% B over 0.1 min. The column was re-equilibrated (0.9 min) before the next sample injection. The total run time was 4.0 min, and the HPLC flow rate was 0.5 ml/min. The source temperature was set at 600 °C, and mass spectral analyses were performed using a Turbo-Ion spray source in positive ionization mode and using multiple-reaction

ICR male mice = test: acetic acid writhing assay; format: in vivo; conditions: mouse, 0.3, 1, 3 mg/kg PO, 2 h before acetic acid IP, writhes counted 30 min
Protocol: To initially explore the role of TREK-2 activation in analgesia, we evaluated 19b in the acetic acid writhing assay. Injection of acetic acid activates nociceptors directly and/or produces inflamed viscera (subdiaphragmatic organs) and subcutaneous (muscle wall) tissues. The number of writhes (characterized by contraction of the abdominal musculature and extension of the limbs) was then counted for 30 min. Analgesic effect was determined by comparing the number of writhes between in the presence of 19b or vehicle. […] At the 3 mg/kg PO dose of 19b, total brain levels are ∼3 μM and free brain in 0.92 μM and CSF levels in 0.22 μM, providing a good PK/PD relationship and supporting the data generated with the TREK activator 3.
Figure 4 Analgesic effect in acetic acid writhing assay. ICR male mice (6 weeks of age) were pretreated with vehicle (0.5 w/v% Methyl Cellulose in distilled water, PO) or 19b (= ONO-2920632) (0.3, 1, 3 mg/kg, PO) or Indomethacin (10 mg/kg, PO). […] The number of writhes (characterized by contraction of the abdominal musculature and extension of the limbs) was then counted for 30 min. Analgesic effect was determined by comparing the number of writhes between in the presence of compound and in the presence of vehicle (*; p < 0.05 by Student’s t test, #; p < 0.05 by Williams test).

Adenosine A1 = Adenosine A1 (Homo sapiens, UniProt P30542); test: Eurofins Lead Profiling radioligand binding; conditions: title: 30 μM
Adrenergic α1A = Adrenergic α1A (Rattus norvegicus, UniProt P43140); test: Eurofins Lead Profiling radioligand binding; conditions: title: 30 μM
Dopamine D4.2 = Dopamine D4.2 (Homo sapiens, UniProt P21917, DEL265-296); test: Eurofins Lead Profiling radioligand binding; conditions: title: 30 μM
[2] = target: Epidermal Growth Factor (EGF) (Homo sapiens, UniProt P00533); test: Eurofins Lead Profiling radioligand binding; conditions: title: 30 μM
Estrogen ERα = Estrogen ERα (Homo sapiens, UniProt P03372); test: Eurofins Lead Profiling radioligand binding; conditions: title: 30 μM
Imidazoline I2, Central = test: Eurofins Lead Profiling radioligand binding; set-up: species or system Rat; conditions: title: 30 μM
Muscarinic M3 = Muscarinic M3 (Homo sapiens, UniProt P20309); test: Eurofins Lead Profiling radioligand binding; conditions: title: 30 μM
[3] = target: Nicotinic Acetylcholine α1, Bungarotoxin (Homo sapiens, UniProt P02708+P07510+Q07001); test: Eurofins Lead Profiling radioligand binding; conditions: read-out: % Inhibition at 10 µM
Sigma σ1 = Sigma σ1 (Homo sapiens, UniProt Q99720); test: Eurofins Lead Profiling radioligand binding; conditions: title: 30 μM
TREK-1 = target: T1, TREK-1 (Homo sapiens, UniProt O95069); test: human TREK-1 MPC assay; format: cell-based; set-up: host or cells: CHO
T1 sequence (O95069 1-426): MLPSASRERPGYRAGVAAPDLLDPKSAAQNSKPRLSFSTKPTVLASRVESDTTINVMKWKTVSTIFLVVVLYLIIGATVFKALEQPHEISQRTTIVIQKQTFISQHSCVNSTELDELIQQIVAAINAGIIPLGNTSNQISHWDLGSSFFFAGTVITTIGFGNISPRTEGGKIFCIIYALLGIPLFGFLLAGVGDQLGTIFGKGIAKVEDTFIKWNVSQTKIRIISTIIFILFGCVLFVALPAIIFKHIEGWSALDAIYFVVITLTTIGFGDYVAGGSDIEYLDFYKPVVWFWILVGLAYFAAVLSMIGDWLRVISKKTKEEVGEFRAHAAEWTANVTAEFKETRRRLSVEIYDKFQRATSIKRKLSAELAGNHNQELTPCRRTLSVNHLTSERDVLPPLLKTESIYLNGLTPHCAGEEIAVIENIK

Sequence of Dopamine D4.2 (P21917 with tags, fused parts or gaps DEL265-296): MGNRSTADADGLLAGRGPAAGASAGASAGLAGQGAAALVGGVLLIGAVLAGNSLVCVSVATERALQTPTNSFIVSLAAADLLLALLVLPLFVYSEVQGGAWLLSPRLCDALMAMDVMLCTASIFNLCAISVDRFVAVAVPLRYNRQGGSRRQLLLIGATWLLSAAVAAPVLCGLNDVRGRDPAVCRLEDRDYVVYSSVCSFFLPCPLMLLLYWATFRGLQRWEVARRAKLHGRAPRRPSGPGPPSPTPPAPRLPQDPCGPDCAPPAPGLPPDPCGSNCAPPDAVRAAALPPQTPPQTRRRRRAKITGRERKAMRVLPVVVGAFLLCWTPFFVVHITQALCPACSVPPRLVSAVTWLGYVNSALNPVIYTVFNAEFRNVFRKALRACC
Sequence of Sigma σ1 (Q99720 whole entry): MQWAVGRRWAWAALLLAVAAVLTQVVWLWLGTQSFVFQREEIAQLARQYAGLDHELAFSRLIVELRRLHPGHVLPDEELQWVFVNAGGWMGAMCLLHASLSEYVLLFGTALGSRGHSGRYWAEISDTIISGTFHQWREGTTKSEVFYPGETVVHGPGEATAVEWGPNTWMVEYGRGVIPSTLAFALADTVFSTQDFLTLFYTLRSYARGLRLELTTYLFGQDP
Sequence of Adrenergic α1A (P43140 whole entry): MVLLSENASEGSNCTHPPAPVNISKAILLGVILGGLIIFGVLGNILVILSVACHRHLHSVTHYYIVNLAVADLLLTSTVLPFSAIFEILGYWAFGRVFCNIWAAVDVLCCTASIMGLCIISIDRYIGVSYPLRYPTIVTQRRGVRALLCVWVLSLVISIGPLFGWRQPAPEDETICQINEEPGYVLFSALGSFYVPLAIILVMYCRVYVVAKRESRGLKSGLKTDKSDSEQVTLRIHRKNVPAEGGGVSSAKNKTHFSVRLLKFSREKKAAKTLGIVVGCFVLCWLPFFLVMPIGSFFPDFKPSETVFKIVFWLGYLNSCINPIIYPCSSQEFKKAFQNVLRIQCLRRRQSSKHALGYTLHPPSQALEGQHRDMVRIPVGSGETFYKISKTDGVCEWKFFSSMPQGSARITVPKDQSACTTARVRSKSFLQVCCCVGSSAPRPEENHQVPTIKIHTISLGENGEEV
Sequence of Adenosine A1 (P30542 whole entry): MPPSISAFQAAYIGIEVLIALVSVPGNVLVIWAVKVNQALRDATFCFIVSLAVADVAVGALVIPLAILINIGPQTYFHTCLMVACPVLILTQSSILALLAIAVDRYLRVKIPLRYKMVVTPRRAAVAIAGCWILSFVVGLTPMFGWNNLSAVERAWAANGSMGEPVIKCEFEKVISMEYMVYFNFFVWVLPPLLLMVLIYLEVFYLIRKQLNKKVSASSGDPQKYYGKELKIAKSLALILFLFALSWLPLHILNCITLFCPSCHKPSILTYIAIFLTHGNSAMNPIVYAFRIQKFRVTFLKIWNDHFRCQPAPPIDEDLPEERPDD
Sequence of Muscarinic M3 (P20309 whole entry): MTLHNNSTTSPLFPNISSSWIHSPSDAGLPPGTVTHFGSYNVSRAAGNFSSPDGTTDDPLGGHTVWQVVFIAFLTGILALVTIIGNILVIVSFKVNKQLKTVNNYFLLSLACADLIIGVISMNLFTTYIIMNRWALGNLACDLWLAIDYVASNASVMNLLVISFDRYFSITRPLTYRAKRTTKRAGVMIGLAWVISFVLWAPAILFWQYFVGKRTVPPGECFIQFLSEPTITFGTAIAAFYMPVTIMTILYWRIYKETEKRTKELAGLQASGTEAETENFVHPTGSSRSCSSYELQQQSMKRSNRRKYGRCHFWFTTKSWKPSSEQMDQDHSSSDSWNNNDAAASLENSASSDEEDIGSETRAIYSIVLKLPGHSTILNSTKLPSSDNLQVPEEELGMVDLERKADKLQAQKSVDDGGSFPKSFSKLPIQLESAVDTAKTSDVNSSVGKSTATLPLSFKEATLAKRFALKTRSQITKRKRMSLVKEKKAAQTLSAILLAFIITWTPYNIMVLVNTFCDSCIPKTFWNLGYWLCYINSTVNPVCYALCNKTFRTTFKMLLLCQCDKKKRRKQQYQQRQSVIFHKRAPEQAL
Sequence of Nicotinic Acetylcholine α1, Bungarotoxin (Q07001 22-517): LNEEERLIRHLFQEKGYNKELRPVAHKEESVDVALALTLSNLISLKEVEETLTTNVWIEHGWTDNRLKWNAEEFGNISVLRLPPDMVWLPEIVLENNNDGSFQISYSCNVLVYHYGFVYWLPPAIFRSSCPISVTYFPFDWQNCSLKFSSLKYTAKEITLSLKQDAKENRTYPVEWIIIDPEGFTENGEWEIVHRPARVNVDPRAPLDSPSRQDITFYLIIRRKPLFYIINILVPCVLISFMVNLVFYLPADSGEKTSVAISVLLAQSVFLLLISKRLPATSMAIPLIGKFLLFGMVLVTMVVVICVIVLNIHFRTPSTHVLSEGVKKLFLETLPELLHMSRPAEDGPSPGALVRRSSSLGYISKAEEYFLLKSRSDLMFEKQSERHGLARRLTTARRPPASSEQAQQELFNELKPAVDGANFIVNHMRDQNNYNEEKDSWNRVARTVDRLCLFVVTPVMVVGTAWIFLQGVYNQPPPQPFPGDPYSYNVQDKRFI
Sequence of Nicotinic Acetylcholine α1, Bungarotoxin (P07510 23-517): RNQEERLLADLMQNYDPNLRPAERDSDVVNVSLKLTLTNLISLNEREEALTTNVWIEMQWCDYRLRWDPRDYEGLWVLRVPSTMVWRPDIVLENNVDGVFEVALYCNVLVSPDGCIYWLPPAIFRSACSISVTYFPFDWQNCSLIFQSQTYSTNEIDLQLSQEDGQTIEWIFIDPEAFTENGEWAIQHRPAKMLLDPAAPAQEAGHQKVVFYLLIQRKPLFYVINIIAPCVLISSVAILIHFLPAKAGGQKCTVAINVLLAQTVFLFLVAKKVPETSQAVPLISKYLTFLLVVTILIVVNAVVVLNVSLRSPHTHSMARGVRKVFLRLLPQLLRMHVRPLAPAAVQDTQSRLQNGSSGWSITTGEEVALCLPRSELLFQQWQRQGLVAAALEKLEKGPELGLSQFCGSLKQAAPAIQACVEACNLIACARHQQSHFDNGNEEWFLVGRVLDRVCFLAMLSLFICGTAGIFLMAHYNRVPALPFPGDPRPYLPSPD
Sequence of Nicotinic Acetylcholine α1, Bungarotoxin (P11230 24-501, further chain): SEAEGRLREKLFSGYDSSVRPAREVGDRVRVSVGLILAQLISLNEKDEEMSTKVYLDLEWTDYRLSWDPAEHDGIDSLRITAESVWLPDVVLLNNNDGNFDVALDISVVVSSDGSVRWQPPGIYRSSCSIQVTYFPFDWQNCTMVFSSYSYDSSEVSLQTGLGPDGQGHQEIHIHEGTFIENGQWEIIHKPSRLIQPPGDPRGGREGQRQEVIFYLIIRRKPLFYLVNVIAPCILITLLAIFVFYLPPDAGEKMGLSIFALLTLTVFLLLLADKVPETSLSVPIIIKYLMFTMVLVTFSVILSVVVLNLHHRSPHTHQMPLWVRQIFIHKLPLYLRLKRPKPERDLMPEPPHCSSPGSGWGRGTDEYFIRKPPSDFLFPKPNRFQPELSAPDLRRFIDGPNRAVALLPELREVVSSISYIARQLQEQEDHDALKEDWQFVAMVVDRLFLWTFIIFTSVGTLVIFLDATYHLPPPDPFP
Sequence of Nicotinic Acetylcholine α1, Bungarotoxin (P02708 21-457): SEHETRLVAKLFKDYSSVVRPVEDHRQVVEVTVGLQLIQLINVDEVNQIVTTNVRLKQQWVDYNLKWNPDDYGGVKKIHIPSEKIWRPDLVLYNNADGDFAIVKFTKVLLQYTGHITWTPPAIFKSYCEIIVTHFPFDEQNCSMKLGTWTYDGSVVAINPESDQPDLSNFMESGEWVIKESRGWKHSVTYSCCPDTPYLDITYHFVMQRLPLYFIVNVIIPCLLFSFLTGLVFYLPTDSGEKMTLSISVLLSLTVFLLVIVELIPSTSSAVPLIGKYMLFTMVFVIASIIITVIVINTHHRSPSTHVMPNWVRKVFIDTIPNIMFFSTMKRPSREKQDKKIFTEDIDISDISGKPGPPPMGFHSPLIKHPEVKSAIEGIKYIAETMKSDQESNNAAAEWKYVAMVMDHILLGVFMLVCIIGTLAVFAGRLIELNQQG
Sequence of Estrogen ERα (P03372 whole entry): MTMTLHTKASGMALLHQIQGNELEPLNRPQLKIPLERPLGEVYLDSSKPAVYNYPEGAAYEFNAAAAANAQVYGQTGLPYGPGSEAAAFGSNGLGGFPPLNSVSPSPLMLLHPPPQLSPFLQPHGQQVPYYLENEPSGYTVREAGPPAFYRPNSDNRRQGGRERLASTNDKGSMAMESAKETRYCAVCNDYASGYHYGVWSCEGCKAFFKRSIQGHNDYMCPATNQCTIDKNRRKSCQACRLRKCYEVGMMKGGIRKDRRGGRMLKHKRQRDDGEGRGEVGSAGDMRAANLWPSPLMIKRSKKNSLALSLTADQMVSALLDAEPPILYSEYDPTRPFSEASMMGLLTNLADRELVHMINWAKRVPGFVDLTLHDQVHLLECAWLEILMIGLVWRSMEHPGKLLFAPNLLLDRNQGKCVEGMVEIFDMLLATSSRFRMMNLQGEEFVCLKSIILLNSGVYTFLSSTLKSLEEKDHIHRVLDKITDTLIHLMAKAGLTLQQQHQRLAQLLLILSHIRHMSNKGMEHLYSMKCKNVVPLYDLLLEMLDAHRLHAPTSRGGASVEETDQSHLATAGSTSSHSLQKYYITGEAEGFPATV

`O=C(NCc1ccc(OC(F)(F)F)cc1F)c1ccc2ncnn2c1` [Compound 19b] gave a total brain concentration ([1]; 2 h, 3 mg/kg) of about 3 µM, a concentration at 2 h ([1]; male, CSF, 3 mg/kg, 2 h, read-out: CSF level) of 220 nM and a concentration at 2 h ([1]; male, brain, 3 mg/kg, 2 h, read-out: free brain level) of 920 nM. The concentration at 2 h ([1]; male, brain, 3 mg/kg, 2 h, read-out: total brain concentration) was 3200 nM, the Cmax ([1]; male, plasma, C57BL/6 mice) was 10500 nM and the Tmax ([1]; male, plasma, C57BL/6 mice) was 3.8 h. For the same compound, the half-life ([1]; male, plasma, C57BL/6 mice) was 19 h, the “analgesic effect (number of writhes)” value (ICR male mice) was “dose-dependently reduces the number of writhes; also recorded: analgesic efficacy at 3 mg/kg PO of comparable magnitude to the positive control indomethacin” and the “analgesic effect (number of writhes)” value (ICR male mice; listed as ONO-2920632) was “robust, dose dependent efficacy”. The inhibition (Adenosine A1) was 14%, the inhibition (Adrenergic α1A) was 2% and the inhibition (Dopamine D4.2) was 15%. For the same compound, the inhibition [2] was 2%, the inhibition (Estrogen ERα) was 1% and the “% Inhibition at 10 µM” value (Imidazoline I2, Central) was 2%. For the same compound, the inhibition (Muscarinic M3) was 8%, the inhibition at 10 µM [3] was 20% and the inhibition (Sigma σ1) was 45%.

Work on `O=C(NCc1ccc(OC(F)(F)F)cc1Cl)c1ccc2nncn2c1` [Compound 20] yielded an EC50 (TREK-1) of 0.33 µM and an Emax (TREK-1) of 172%.
